Laboratory results published in PubChem BioAssay (NCI).
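Compound exposure: 48 hours, 5 concentrations, 96-well plates. Definition used: TGI = concentration required for complete inhibition of growth.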 Where a SMILES comes first, the peptide text is derived from it. The star is where a group is joined. Boc = CC(C)(C)OC(=O)*; Bz = O=C(c1ccccc1)*

What was measured:
Experiment in all cases: DTP human tumour cell line panel, 48 h
UACC-62 melanoma = tested on: UACC-62 melanoma
M14 melanoma = tested on: M14 melanoma
ACHN renal = tested on: ACHN renal
SW-620 colon = tested on: SW-620 colon
SF-539 CNS = tested on: SF-539 CNS
HL-60(TB) leukemia = tested on: HL-60(TB) leukemia
TK-10 renal = tested on: TK-10 renal
HCC-2998 colon = tested on: HCC-2998 colon
EKVX NSCLC = tested on: EKVX NSCLC
MALME-3M melanoma = tested on: MALME-3M melanoma
CCRF-CEM leukemia = tested on: CCRF-CEM leukemia
SR leukemia = tested on: SR leukemia
OVCAR-4 ovarian = tested on: OVCAR-4 ovarian
LOX IMVI melanoma = tested on: LOX IMVI melanoma
BT-549 breast = tested on: BT-549 breast
RPMI-8226 leukemia = tested on: RPMI-8226 leukemia
NCI/ADR-RES ovarian = tested on: NCI/ADR-RES ovarian
T-47D breast = tested on: T-47D breast
A498 renal = tested on: A498 renal

| SMILES | TGI (UACC-62 melanoma) [µM] | TGI (M14 melanoma) [µM] | TGI (ACHN renal) [µM] | TGI (SW-620 colon) [µM] | TGI (SF-539 CNS) [µM] | TGI (HL-60(TB) leukemia) [µM] | TGI (TK-10 renal) [µM] | TGI (HCC-2998 colon) [µM] | TGI (EKVX NSCLC) [µM] | TGI (MALME-3M melanoma) [µM] | TGI (CCRF-CEM leukemia) [µM] | TGI (SR leukemia) [µM] | TGI (OVCAR-4 ovarian) [µM] | TGI (LOX IMVI melanoma) [µM] | TGI (BT-549 breast) [µM] | TGI (RPMI-8226 leukemia) [µM] | TGI (NCI/ADR-RES ovarian) [µM] | TGI (T-47D breast) [µM] | TGI (A498 renal) [µM] |
| --- | --- | --- | --- | --- | --- | --- | --- | --- | --- | --- | --- | --- | --- | --- | --- | --- | --- | --- | --- |
| CCC(C)n1c(C)nc2c1C(=O)c1ccccc1C2=O (centres undefined) | > 100 | > 100 | > 100 | > 100 | > 100 | > 100 | > 100 | > 100 | > 100 | 77.9 | > 100 | > 100 | > 100 | > 100 | – | – | – | – | – |
| COc1ccc(/C=C2\CCC(C)C3=C(c4ccc(OC)c(OC)c4)C(C#N)=C(N)OC32)cc1OC (centres undefined) | 7.34 | 15 | > 100 | > 100 | – | 7.75 | > 100 | – | 8.12 | 32.2 | 19.2 | – | – | 10.9 | 24.5 | 5.76 | 39.4 | 7.97 | 51.9 |
| NC(Cc1ccc(S(=O)(=O)O)cc1)C(=O)NC(CCCCNC(=O)NCCCCC(NC(=O)C(N)Cc1ccc(S(=O)(=O)O)cc1)C(=O)NC(Cc1ccc(S(=O)(=O)O)cc1)C(=O)O)C(=O)NC(Cc1ccc(S(=O)(=O)O)cc1)C(=O)O (centres undefined) | > 100 | > 100 | > 100 | > 100 | > 100 | > 100 | > 100 | > 100 | > 100 | > 100 | > 100 | – | > 100 | > 100 | > 100 | > 100 | > 100 | > 100 | > 100 |
| CCOC(=O)c1cnn2c1ncc1c(=O)n(NC(N)=O)ccc12 | > 100 | > 100 | > 100 | > 100 | > 100 | > 100 | > 100 | – | > 100 | > 100 | > 100 | – | > 100 | > 100 | > 100 | – | – | > 100 | > 100 |
| CC1(C)CCC[C@@]2(C)C1CCC1(C)C(CCc3ccoc3)/C(=C/OS(=O)(=O)O)CCC12 (some centres undefined) (tested in a mixture with another compound) | > 100 | > 100 | > 100 | > 100 | > 100 | > 100 | > 100 | > 100 | > 100 | > 100 | > 100 | > 100 | > 100 | > 100 | – | > 100 | – | – | > 100 |
| O=C(/C=C/c1ccc(OCCCOc2ccc(/C=C/C(=O)c3ccccc3)cc2)cc1)c1ccccc1 | > 100 | > 100 | > 100 | > 100 | > 100 | > 100 | > 100 | > 100 | > 100 | > 100 | > 100 | > 100 | > 100 | > 100 | – | > 100 | – | – | > 100 |
| C=C(CN(C)C)C(=O)c1ccccc1C | > 62.3 | 33.8 | 57.6 | 33.1 | > 60.8 | 15.9 | > 100 | > 100 | > 100 | 36 | 34.2 | 47.2 | > 100 | > 100 | – | 48.6 | – | – | > 100 |
| OCC1OC(n2nc(-c3ccccc3)nc2-c2cnccn2)C(O)C(O)C1O (centres undefined) | > 100 | > 100 | – | > 100 | > 100 | > 100 | – | > 100 | – | – | > 100 | – | > 100 | > 100 | > 100 | > 100 | > 100 | > 100 | – |
| COc1ccc2nc3cc(Cl)ccc3c(NCCCN(Cc3cc(OC)c(OC)c(OC)c3)Cc3cc(OC)c(OC)c(OC)c3)c2c1 | 32.3 | 3.45 | 27.2 | 3.22 | 10.5 | – | 44.1 | 37.3 | 37.4 | 44.1 | – | – | – | – | 28 | 32 | 86.5 | 47.4 | – |
| CC(=O)OC1=c2ccccc2=C(O)C2C1C=NN2C(C)=O (centres undefined) | > 100 | > 100 | > 100 | > 100 | > 100 | > 100 | > 100 | > 100 | > 100 | > 100 | > 100 | – | > 100 | > 100 | > 100 | > 100 | > 100 | > 100 | > 100 |
| CCNC(C)Cc1ccccc1 (centres undefined) | > 100 | > 100 | > 100 | > 100 | > 100 | > 100 | > 100 | > 100 | > 100 | > 100 | > 100 | > 100 | > 100 | > 100 | – | > 100 | – | – | > 100 |
| Oc1ccc(-c2csc(NNC3=NC/C(=C/c4ccc5c(c4)OCO5)S3)n2)cc1O | – | > 100 | > 100 | > 100 | > 100 | – | 72.4 | > 100 | > 100 | – | – | – | > 100 | > 100 | – | – | > 100 | > 100 | – |
| CC(NC(=O)C(Cc1ccc(OC(=O)c2ccccc2)cc1)NC(=O)OC(C)(C)C)C(=O)NC(Cc1ccccc1)C(=O)NCC(N)=O (centres undefined) (Boc-Y(Bz)AFG-NH2; configuration not given here) | 37.3 | 34 | 54.6 | > 100 | 68.3 | 82 | 41.4 | 38.5 | – | 42 | > 100 | – | 47.2 | 49.5 | 37.4 | 59.7 | > 100 | 50.7 | 41.9 |
| OC1[C@H]([C@H]2CCCC[C@@H]2O)CCC[C@@H]1[C@@H]1CCCC[C@H]1O (some centres undefined) | > 100 | > 100 | > 100 | > 100 | > 100 | > 100 | > 100 | > 100 | > 100 | > 100 | > 100 | > 100 | > 100 | > 100 | – | > 100 | – | – | > 100 |
